{"source": "paper PMC5847527", "about": "“Identification of a novel 2-oxindole fluorinated derivative as in vivo antitumor agent for prostate cancer acting via AMPK activation” (Scientific Reports, 2018)", "key": {"AMPKα1 1–550 fragment": {"test_system": "AMPKα1 1–550 fragment", "experiment": "Activity on isolated AMPKα1 1–550 fragment", "assay_type": "biochemical, human", "details": "fragment containing the catalytic domain", "from_the_text": "We also assayed the effect of compound 8c on a fragment of the α1 isoform (aa 1–550) that contains the catalytic domain.\n(B) Activity of compound 8c on isolated AMPKα1 1–550 fragment. […] Data are the mean ± S.D. of four experiments. **p < 0.01 and ***p < 0.001 compared by the Student’s t-test."}, "[1]": {"test_system": "PC-3, DU145 and LNCaP cells", "experiment": "Cell viability by cell counting (Trypan blue)", "assay_type": "cell-based", "details": "25 µM", "procedure": "Figure 3 Comparison of the effect of 2-oxindole fluorinated derivatives on the proliferation of human prostate cancer cells. (A) Normal (PTN2 and RWPE-1) and cancer (PC3,DU145 and LNCaP) prostate cells were treated with different doses of the compounds for 24 hours and cell viability was monitored by MTT assay. […] (C) PC-3, DU145 and LNCaP cells were treated with 25 µM of compound 8c for different times. Values were normalized with the control and represent the mean ± SD of at least three independent experiments. *p < 0.05 and **p < 0.01 compared to control by the Student’s - test.\nTo confirm the antiproliferative effect of compound 8c, cell viability was evaluated by cell counting at different times in PC-3, DU145 and LNCaP cells.\nCell viability was determined by 3-(4,5-dimethylthiazol-2-yl)-2,5-diphenyltetrazolium bromide (MTT) (Sigma-Aldrich) method. […] The optical density in each well was evaluated by measurement of absorbance at 490 and 650 nm using a microplate reader (ELX 800 Bio-Tek Intruments, INC). IC50 values were calculated using GraphPad Prism vs 6.0 (GraphPad Software, Inc, La Jolla, CA, USA). Cell viability was also determined by counting viable and dead cells by Trypan blue staining. Trypan blue positive and negative cells were counted using a Countess^TM automated cell counter (Invitrogen, Carlsbad, CA, USA). […]"}}}
{"smiles": "O=C1Nc2ccccc2C1(F)Cc1ccc(-c2ccccc2)o1", "note": "(centres unmarked) [Compound 8c, 3-fluoro-3-((5-phenylfuran-2-yl)methyl)indolin-2-one]", "values": [{"measurement": "AMPK activity of α1 isoform fragment (aa 1–550)", "setting": "AMPKα1 1–550 fragment", "value": "no change in AMPK activity"}, {"measurement": "cytotoxic effect by cell counting at different times", "setting": "[1]", "value": "time-dependent strong cytotoxic effect"}]}
